Earlier results in PMC3272643 (Organic process research & development, 2012).

Tested on: peptide-cleaving proteases

## gramicidin S
  resistance to peptide-cleaving proteases: significant resistance to peptide-cleaving proteases
